Experimental findings from US6696440B1, “Treatment of asthma with MEK inhibitors” (Warner-Lambert Company, priority 1999, dated 2004) are described below.

Marks after values point to notes of the source that are not given here.

As a reminder, the melting point is the temperature of the solid-liquid transition. The IC50 is the concentration that gives 50% inhibition.

Series [1] concerns OVA-primed splenocytes. Kind of series: Inhibition of antigen-induced IL-5 production by OVA-primed splenocytes in vitro. Conditions: Mus musculus, Splenocyte, 72 h; OVA-sensitized splenocytes cultured 3 days with 200 μg/mL OVA; IL-5 by ELISA. Type of series: cell-based, mice. How it is done: (§1) For each of these assays, female C57BL/6 mice obtained from the Jackson Laboratory (Bar Harbor, Me.) were given an intraperitoneal (i.p.) injection of ovalbumin (OVA, Grade V, Sigma Chemical Company, St. Louis, Mo.) adsorbed to aluminum hydroxide (10 μg OVA+9 mg aluminum hydroxide in 200 μL saline). This sensitizes OVA-specific lymphocytes for subsequent restimulation either in vivo or in vitro.
The first set of experiments was designed to determine whether the MEK inhibitors could prevent antigen-induced production of IL-5 by the OVA-primed splenocytes in vitro. IL-5 is required for the differentiation, migration, and survival of pulmonary eosinophils, which are thought to be responsible for much of the pathology associated with human asthma. In order to examine the effects of MEK inhibitors on IL-5 production, OVA-sensitized mice were sacrificed by cervical dislocation 14 days after sensitization (Day 14), the spleens were excised and disaggregated, and the erythrocytes were lysed. The splenocytes were washed and resuspended at […] in complete medium consisting of RPMI 1640 (Gibco BRL, Gaithersburg, Md.) with 10% heat-inactivated fetal calf serum (Hyclone, Logan, Utah), 55 μM 2-mercaptoethanol, 50 U/mL penicillin G, 50 μg/mL streptomycin sulfate, and 2 mM L-glutamine (Gibco BRL). The splenocytes were then cultured at 37° C. in the presence of 200 μg/mL OVA. MEK inhibitors were also added to the cultures from sterile 10 mM stock solutions (in DMSO). After 3 days, the culture medium was recovered and assayed for IL-5 by specific ELISA.

Series [2] has as its system BAL eosinophils. Kind of series: Adoptive (passive) transfer of eosinophilic lung inflammation by MEK inhibitor-treated splenocytes. Type of series: in vivo. To be noted: spleen cell culture treated with 10 μM compound; cells transferred to naive mice; OVA aerosol challenge. How it is done: as §1
When OVA-sensitized spleen cells are restimulated with OVA in vitro for 3 days, as described above, the spleen cells not only produce IL-5, but also acquire the ability to induce eosinophilic lung inflammation when transferred into naive recipient mice. The critical cell type responsible for this adoptively-transferred activity is thought to be IL-5-producing T lymphocytes. […] Splenocytes from OVA restimulation cultures, with or without the addition of MEK inhibitors were harvested after 3 days of culture, washed three times, and resuspended at 1×10^8 cells/mL in sterile saline. Groups of five naive (unsensitized) […] mice were injected i.p. with 200 μL of the cell suspension (2×10^7 cells). Three days after transfer of cells, the recipient mice were challenged with a 12-minute inhalation of an aerosol formulation of 1.5% OVA in saline (weight/volume), the mist being produced by a nebulizer (small particle generator model SPAG-2, ICN Pharmaceuticals, Costa Mesa, Calif.). Three days after aerosol challenge, the mice were anesthetized with an i.p. injection of an anesthetic mixture comprising Ketamine, acepromazine, and xylazine. The trachea of each mouse was exposed and cannulated. The lungs and upper airways were lavaged with 0.5 mL of cold (5° C.) phosphate buffered saline (PBS). The cells within a 200 μL portion of the bronchoalveolar lavage (BAL) fluid were enumerated using a Coulter counter (Model ZB 1, Coulter Electronics, Hialeah, Fla.). […] The number of eosinophils in the BAL fluid was determined by multiplying the percentage of eosinophils by the total cell count.

For series [3], the system named is BAL eosinophils. Kind of series: Active OVA-induced eosinophilic lung inflammation in mice, oral dosing. Type of series: in vivo. To be noted: for % Inhibition of BAL Eosinophils / % Inhibition of BAL Eosinophilia: oral; for % Inhibition of BAL Eosinophilia: 4 days (Day 13 to Day 16); for activity against BAL eosinophils (in words): multiple doses, dosing for 4 days (Table 4); for inhibitory activity against BAL eosinophils (in words): oral dosing schedule of 9 days (Table 5). How it is done:
as §1
The final set of experiments was designed to test whether MEK inhibitors could inhibit active OVA-induced eosinophilic lung inflammation in mice. Mice were sensitized with OVA/aluminum hydroxide on Day 0 as described above. On Day 14, the mice were challenged by aerosol with 1.5% OVA, as described above for the adoptive-transfer recipients. One group of eight sensitized mice was dosed orally with vehicle (0.5% hydroxypropylmethylcellulose/0.25% TWEEN-80). Other groups of sensitized mice (8 mice per group) were given oral doses of a MEK inhibitor. The test compound was dissolved in the vehicle, and the volume for each dosage was adjusted to 200 μL, so that each test animal received the same oral volume. In experiments reported in Table 3 and Table 4, the MEK inhibitor was administered starting on Day 13 (ie, 13 days after initial sensitization and 1 day prior to aerosol challenge), and continued daily through Day 16 (4 days total). In experiments reported in Table 5, the MEK inhibitor was administered starting on Day 7 (ie, 7 days after initial sensitization and 7 days prior to aerosol challenge), and continued daily through […]. On Day 17 of each experiment (17 days following the initial OVA challenge, and 3 days after the OVA aerosol challenge), all animals including controls were anesthetized, cannulated, and lavaged as previously described. The number of BAL eosinophils was determined as described above.

The mark [4] stands for this setting: 4-day compound dosing, 10 mg/kg.
[5] abbreviates: 4-day compound dosing, 30 mg/kg.
[6] abbreviates: 4-day compound dosing, 100 mg/kg.

In turn, `Cc1cc(I)ccc1Nc1cc(F)ccc1C(=O)O` [Example 1, 4-Fluoro-2-(4-iodo-2-methylphenylamino)benzoic Acid] had a melting point of 224 to 229.5 °C.
`Cc1cc(I)ccc1Nc1ccccc1C(=O)O` [Example 19, 2-(4-Iodo-2-methyl-phenylamino)-benzoic acid] yielded a melting point of 218 to 223 °C.
Take `COc1ccc(Nc2ccc(I)cc2)c(C(=O)O)c1` [Example 24, 2-(4-Iodo-phenylamino)-5-methoxy-benzoic acid]: the melting point is 208 to 211 °C.
Same read-out and setting: in the case of `Cc1cc(I)ccc1Nc1ccccc1-c1nnn[nH]1` [Example 208, (4-iodo-2-methyl-phenyl)-[2-(1H-tetrazol-5-yl)-phenyl]amine] it was 231 °C (dec.).
As to `COc1cccc(-c2cc(=O)c3ccccc3o2)c1N` [PD 098059, 2-(2-amino-3-methoxyphenyl)-4-oxo-4H-[1]benzopyran, reference compound], the IC50 in series [1] worked out at 17400 nM.
With `Cc1cc(I)ccc1Nc1cc(F)ccc1C(=O)NO` [PD 170611, 2-(2-Methyl-4-iodophenylamino)-N-hydroxy-4-fluorobenzamide], the melting point lay in the range of 61 to 75 °C. The IC50 in series [1] worked out at 1120 nM.
On to `Cc1cc(I)ccc1Nc1c(C(=O)NO)cc(Br)c(F)c1F` [PD 171984, 2-(2-Methyl-4-iodophenylamino)-N-hydroxy-3,4-difluoro-5-bromobenzamide], for which the melting point lay in the range of 80 to 90 °C. The IC50 in series [1] was 117 nM. Moreover, the “% Inhibition of BAL Eosinophils” value in series [2] is 99.82%. The “% Inhibition of BAL Eosinophils” value in series [3] (setting [4]) is given as 38.4* %. Moreover, the “% Inhibition of BAL Eosinophils” value in series [3] (setting [5]) is listed as 46.6* %. Also, the “% Inhibition of BAL Eosinophils” value in series [3] (setting [6]) is given as 58.4* %. Further, in series [3] (9-day compound dosing, 10 mg/kg, Experiment 1), the “% Inhibition of BAL Eosinophils” value is −13.74%. The “% Inhibition of BAL Eosinophils” value in series [3] (9-day compound dosing, 10 mg/kg, Experiment 2) is 50.15* %. Moreover, in series [3] (9-day compound dosing, 30 mg/kg, Experiment 1), the “% Inhibition of BAL Eosinophils” value is 80.64* %. Besides, the “% Inhibition of BAL Eosinophils” value in series [3] (9-day compound dosing, 30 mg/kg, Experiment 2) was 37.23* %. Moreover, the “% Inhibition of BAL Eosinophils” value in series [3] (9-day compound dosing, 100 mg/kg, Experiment 1) is recorded as 88.40* %. For the same molecule, in series [3] (9-day compound dosing, 100 mg/kg, Experiment 2), the “% Inhibition of BAL Eosinophils” value is reported as 54.77* %. Further, the “% Inhibition of BAL Eosinophilia” value in series [3] (Dose 100) is recorded as 55.26* %. Besides, in series [3] (initial analysis, dosed orally for 4 days (Table 3)), the “inhibition of pulmonary eosinophilia (in words)” value is “demonstrated any inhibition of pulmonary eosinophilia”. Besides, in series [3], the “activity against BAL eosinophils (in words)” value is “appears active” and the “inhibitory activity against BAL eosinophils (in words)” value is listed as “statistically significant inhibitory activity”.
Consider `Cc1cc(I)ccc1Nc1c(C(=O)NOCC2CC2)cc(Br)c(F)c1F` [PD 177168, 2-(2-Methyl-4-iodophenylamino)-N-cyclopropylmethoxy-3,4-difluoro-5-bromobenzamide], for which the IC50 in series [1] was 1200 nM. Moreover, the “% Inhibition of BAL Eosinophilia” value in series [3] (Dose 100) was −23.38%.
In the same order, the values of `O=C(NOCC1CC1)c1cc(Br)c(F)c(F)c1Nc1ccc(I)cc1Cl` [PD 184161, 2-(2-Chloro-4-iodophenylamino)-N-cyclopropylmethoxy-3,4-difluoro-5-bromobenzamide] are 1150 nM and −32.53%.
As to `O=C(NOCC1CC1)c1ccc(F)c(F)c1Nc1ccc(I)cc1Cl` [PD 184352, 2-(2-Chloro-4-iodophenylamino)-N-cyclopropylmethoxy-3,4-difluorobenzamide], the IC50 in series [1] is 1620 nM. In addition, the “% Inhibition of BAL Eosinophils” value in series [2] is on record as 99.46%; in series [3] (setting [4]) it was −22.7%; in series [3] (setting [5]), −153.8%; in series [3] (setting [6]), −8.2%; in series [3] (9-day compound dosing, 10 mg/kg), −42.99%; in series [3] (9-day compound dosing, 30 mg/kg), 1.83%. Besides, the “% Inhibition of BAL Eosinophils” value in series [3] (9-day compound dosing, 100 mg/kg) was 59.85%. Also, the “% Inhibition of BAL Eosinophilia” value in series [3] (Dose 150) was −5.41%. Also, the “activity against BAL eosinophils (in words)” value in series [3] was “does not”. Further, the “inhibitory activity against BAL eosinophils (in words)” value in series [3] is “shown to inhibit the asthma-like response in mice”.
On to `O=C(NO)c1cc(Br)c(F)c(F)c1Nc1ccc(I)cc1Cl` [PD 184386, 2-(2-Chloro-4-iodophenylamino)-N-hydroxy-3,4-difluoro-5-bromobenzamide], for which the IC50 in series [1] amounted to 23 nM. Moreover, the “% Inhibition of BAL Eosinophils” value in series [2] amounted to 99.78%. Besides, the “% Inhibition of BAL Eosinophilia” value in series [3] (Dose 100) was −33.24%.
